Results on nine compounds are retold here after patent US6254882A, “Methods and compositions for treating pulmonary disorders using optically pure (S)--salmeterol” (Sepracor Inc., priority 1997, dated 2001).

Molecules are shown by their SMILES. Some results are limits rather than exact numbers.

Data set [1] concerns isolated guinea pig tracheal strips. Put plainly: Relaxation of histamine-contracted isolated guinea pig tracheal strips. Set-up: species or system guinea pig (male Hartley). The settings on record: for EC50: Cavia porcellus, % of maximum relaxation by 1 mM papaverine, tested up to 1000 nM, r(log-lin) = 0.9453-0.9968, (S)-salmeterol extrapolated from three data points, read-out: EC50 Tracheal Relaxation, determined by linear regression of percent maximum response.

The subject of data set [2] is isolated guinea pig right atria. Kind of data set: Chronotropic effect on isolated guinea pig right atria (atrial rate). Set-up: species or system guinea pig (male Hartley). The settings on record: for EC50: Cavia porcellus, % of rate produced by 1 μM forskolin, tested up to 1000 nM, r(log-lin) = 0.9453-0.9968, read-out: EC50 Atrial Rate, determined by linear regression of percent maximum response.

Data set [3] deals with human β2 AR (Homo sapiens, UniProt P07550). Kind of data set: Competitive binding to human β2-adrenergic receptor ([125I]iodopindolol, Sf9 cell membranes). The following applies: radioligand [125I]iodopindolol; read-out: Kd for radioligand binding to human β2 ARs.
For data set [4], the target named is human β1 AR (Homo sapiens, UniProt P08588). Put plainly: Competitive binding to human β1-adrenergic receptor ([125I]iodopindolol, Sf9 cell membranes). The settings on record: radioligand [125I]iodopindolol; read-out: Kd for radioligand binding to human β1 ARs.
The conditions of data set [5]: as described in the PDR, even by inhalation; cited from earlier work.

human β2 AR, sequence (P07550 whole entry): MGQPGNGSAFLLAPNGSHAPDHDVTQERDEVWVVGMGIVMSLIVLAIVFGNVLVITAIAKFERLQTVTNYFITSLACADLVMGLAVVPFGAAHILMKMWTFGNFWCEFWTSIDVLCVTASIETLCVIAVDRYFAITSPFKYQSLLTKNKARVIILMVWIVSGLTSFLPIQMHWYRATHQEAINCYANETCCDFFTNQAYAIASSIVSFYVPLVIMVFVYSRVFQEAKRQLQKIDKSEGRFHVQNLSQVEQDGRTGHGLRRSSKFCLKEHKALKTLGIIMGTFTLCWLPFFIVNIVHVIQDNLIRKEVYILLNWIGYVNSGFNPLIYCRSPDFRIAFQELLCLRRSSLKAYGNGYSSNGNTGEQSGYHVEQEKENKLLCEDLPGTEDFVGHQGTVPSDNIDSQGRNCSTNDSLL
human β1 AR, sequence (P08588 whole entry): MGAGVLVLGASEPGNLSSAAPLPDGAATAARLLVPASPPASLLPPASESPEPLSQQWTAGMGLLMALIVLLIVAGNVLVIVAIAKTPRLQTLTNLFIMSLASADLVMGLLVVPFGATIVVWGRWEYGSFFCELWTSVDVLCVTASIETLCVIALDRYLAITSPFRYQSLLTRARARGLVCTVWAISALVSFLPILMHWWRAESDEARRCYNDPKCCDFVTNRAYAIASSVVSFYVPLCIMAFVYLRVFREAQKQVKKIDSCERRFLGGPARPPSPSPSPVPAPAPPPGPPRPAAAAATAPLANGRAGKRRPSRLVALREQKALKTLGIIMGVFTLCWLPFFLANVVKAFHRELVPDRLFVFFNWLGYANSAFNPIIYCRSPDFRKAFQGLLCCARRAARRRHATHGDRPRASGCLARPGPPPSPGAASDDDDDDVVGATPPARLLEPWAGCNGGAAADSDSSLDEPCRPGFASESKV

Regarding `CC(C)(C)NC[C@H](O)c1ccc(O)c(CO)c1` [(R)-Albuterol], the EC50 (as a rule, the concentration giving half of the maximal effect) in data set [1] is 747 nM; in data set [2], 177 nM. The “potency for tracheal relaxation relative to (S)-salmeterol” value in data set [1] (relative to (S)-salmeterol) is on record as “approximately four”.

As for `OCc1cc([C@H](O)CNCCCCCCOCCCCc2ccccc2)ccc1O` [(S)-Salmeterol, S enantiomer of 4-hydroxy-α^1 - [[[6(4-phenylbutoxy)-hexyl]amino]methyl]-1,3-benzenedimethanol], the EC50 in data set [1] is 3150 nM. In addition, the “potency for tracheal relaxation compared with (S,S)-formoterol” value in data set [1] (extrapolated from three data points) is listed as “equivalent in potency”. In data set [1] (in words), the “efficacy with respect to tracheal relaxation” value is reported as “full efficacy could be achieved” and the “potency for tracheal relaxation compared with racemic formoterol or its (R,R)-enantiomer” value is on record as “significantly less potent”. The “effect on atrial rate compared with vehicle control” value in data set [2] (in words) was “essentially the same effect on atrial rate as the vehicle control”.

As to `OCc1cc([C@@H](O)CNCCCCCCOCCCCc2ccccc2)ccc1O` [(R)-Salmeterol], the EC50 in data set [1] was 149 nM; in data set [2], 1730 nM.

For `CC(C)NC[C@H](O)COc1cccc2[nH]cc(I)c12` [[^125 l] iodopindolol], the Kd (in general, a measure of binding affinity in units of concentration) stood at 0.02 nM in data set [3] and 2 nM in data set [4].

`OCc1cc(C(O)CNCCCCCCOCCCCc2ccccc2)ccc1O` (racemic) [(RS)-Salmeterol, 4-hydroxy-α^1 - [[[6(4-phenylbutoxy)-hexyl]amino]methyl]-1,3-benzenedimethanol]: the results for the concentration giving a half-maximal response (EC50) in data set [1] and in data set [2] were 273 nM and 3520 nM, respectively. The adverse effects result in data set [5] was “tachycardia, palpitations, urticaria, angioedema, rash, bronchospasms, headache, tremors, nervousness, and paradoxical bronchospasms”.

Turning to `COc1ccc(Cc2nccc3cc(OC)c(OC)cc23)cc1OC` [papaverine], the “relaxation of histamine-contracted tracheal strips” value in data set [1] (1 mM papaverine) is recorded as “complete relaxation”.

`C=C[C@@]1(C)CC(=O)[C@]2(O)[C@@]3(C)[C@@H](O)CCC(C)(C)[C@@H]3[C@H](O)[C@H](OC(C)=O)[C@@]2(C)O1` [forskolin]: the “rate of spontaneous contraction of right atria” value in data set [2] (1 μM forskolin, basal roughly 140-170 bpm) is 195-250 bpm.

Turning to `CC(C)(C)NC[C@@H](O)c1ccc(O)c(CO)c1` [(S)-Albuterol], the EC50 is 100000 nM in data set [1] and greater than 10000 nM in data set [2].

On to `CC(C)(C)NCC(O)c1ccc(O)c(CO)c1` (racemic) [(RS)-Albuterol], for which the EC50 in data set [1] was 673 nM; in data set [2], 272 nM.
